Assay results: US9446037B2, “Methods for the treatment of parkinson's disease psychosis using pimavanserin” (ACADIA Pharmaceuticals Inc., priority 2012, dated 2016)

Experiments:
[1] = tested on: Parkinson's disease psychosis (PDP) patients; assay: Phase III six-week randomized double-blind placebo-controlled study in PDP patients; assay type: in vivo, human
Procedure: A six-week, multi-center, randomized, double-blind, placebo-controlled study was conducted in PDP patients. The purpose of the study was to evaluate the safety and efficacy of 40 mg pimavanserin compared to placebo in the treatment of PDP.
A total of 199 patients were enrolled in the study and randomized on a one-to-one basis to receive either 40 mg of pimavanserin or placebo once daily for six weeks, following a two-week screening period including brief psycho-social therapy. Patients also received stable doses of their existing anti-Parkinson's therapy throughout the study.
At the screening visit, a trained member of the site staff worked with the patient's caregiver to devise a structured plan of social interaction for the patient and caregiver to follow at home. This brief non-pharmacologic psychosocial counseling was intended to help the patient and caregiver to manage the symptoms and provide standard of care prior to the blinded investigational treatment phase. Following the screening visit, patients received two follow-up phone calls (˜3- and 7-days from the screening visit) to review the plan and evaluate progress. Only those patients who met entry criteria at baseline were randomized to receive 40 mg pimavanserin or matching placebo for the 6-week treatment period.
The maximum duration of the study for each subject was approximately 12 weeks. Pimavanserin was administered in tablet form, once daily by mouth in 40 mg doses (2 tablets of 20 mg). Placebo was administered with visibly matching tablets, using the same route and regimen. The safety of subjects was assessed by monitoring adverse events, physical examinations, vital signs, clinical laboratory tests (hematology, clinical chemistry, and urinalysis), and electrocardiograms.
Primary Clinical Endpoint: The combined score for the modified 9-item hallucinations and delusions domains of the Scale for the Assessment of Positive Symptoms (SAPS-PD).
Key Secondary Endpoint: Parts II-III of the Unified Parkinson's Disease Rating Scale (UPDRS), which measures motor function.
Other Secondary Endpoints: Changes in the Clinical Global Impression Scale (CGI) with emphasis on severity (CGI-S) and improvement (CGI-I) of psychosis.
Exploratory Endpoints: the Caregiver Burden Scale, and Scales for Outcomes in Parkinson's Disease-Sleep scale (SCOPA-Sleep).
Note: mixed model repeated measures (MMRM) method was applied in primary analysis of the intent-to-treat (ITT) population. The significance test was based on least-square mean change from baseline for each arm using a 2-sided […]=0.05.

[2] = tested on: learning of a simple auto-shaped response; details: mice; intraperitoneal doses up to 32 mg/kg; cited from earlier work
[3] = tested on: DOI ((±)-2,5-dimethoxy-4-iodoamphetamine, a serotonin agonist) induced head twitches; details: rat; oral doses of 3 and 10 mg/kg; cited from earlier work
[4] = tested on: gating deficit induced by DOI; details: rat; doses of 1 and 3 mg/kg SC; cited from earlier work
[5] = tested on: hyperactivity induced by the N-methyl-D-aspartate antagonist MK-801; details: mice; oral doses of 3 and 10 mg/kg; cited from earlier work

For CC(C)COc1ccc(CNC(=O)N(Cc2ccc(F)cc2)C2CCN(C)CC2)cc1 [Pimavanserin, N-(1-methylpiperidin-4-yl)-N-(4-fluorophenylmethyl)-N′-(4-(2-methylpropyloxy)phenylmethyl)carbamide], the “safety and tolerability in the trial” value ([1]; 40 mg once daily oral, 6 weeks) was “safe and well tolerated”, the “SAPS-PD Mean Change at Day 43” value ([1]; 40 mg once daily oral, 6 weeks, n = 95, ITT, MMRM least-square mean change from baseline, P-value 0.001 vs placebo) was −5.79 and the “serious adverse event: urinary tract infection (number of patients)” value ([1]; 40 mg once daily oral, 6 weeks, placebo 1) was 3. The “adverse event incidence: falls” value ([1]; 40 mg once daily oral, 6 weeks, placebo 8.5%) was 10.6%, the “adverse event incidence: urinary tract infection” value ([1]; 40 mg once daily oral, 6 weeks, placebo 11.7%) was 13.5% and the “serious adverse event: psychotic disorder (number of patients)” value ([1]; 40 mg once daily oral, 6 weeks, placebo zero) was 2. For the same molecule, the “CGI-I scale (secondary efficacy measure)” value ([1]; 40 mg once daily oral, 6 weeks, versus placebo, p=0.001) was “highly significant improvement”, the “Caregiver Burden Scale” value ([1]; 40 mg once daily oral, 6 weeks, versus placebo, p=0.002) was “highly significant improvement” and the “daytime wakefulness on SCOPA-sleep scale” value ([1]; 40 mg once daily oral, 6 weeks, versus placebo, p=0.012) was “significant improvements”. For the same molecule, the “nighttime sleep on SCOPA-sleep scale” value ([1]; 40 mg once daily oral, 6 weeks, versus placebo, p=0.045) was “significant improvements”, the “improvement in psychosis at day 43 on SAPS-PD” value ([1]; 40 mg once daily oral, day 43, blinded independent centralized raters) was 5.79 point and the “treatment difference on SAPS-PD versus placebo” value ([1]; 40 mg once daily oral, day 43, p=0.001) was 3.06 points. The “change in combined UPDRS II & III scores” value ([1]; 40 mg once daily oral, mean change from baseline to day 43) was −1.40, the “motor function (UPDRS Parts II-III, non-inferiority versus placebo)” value ([1]; two-sided 95 percent CI of treatment difference, pre-specified margin of 5 points, day 43) was “did not worsen motor function” and the “disruption of learning of a simple auto-shaped response” value [2] was “failed to disrupt learning”. The “activity in DOI induced head twitches” value [3] was “effective”, the “reversal of DOI induced sensory motor gating deficit” value [4] was “potently reversed the gating deficit” and the “attenuation of MK-801 induced hyperactivity” value [5] was “effective”.
